According to ChEMBL document CHEMBL1159385, “Euphane and tirucallane triterpenes from the roots of Euphorbia kansui and their in vitro effects on the cell division of Xenopus” (2003):

Columns and labels:
Xenopus laevis [1] = species on record: Xenopus laevis; assay: Growth inhibition of Xenopus laevis blastular stage cells at 10 ug/mL; format: functional; conditions: Blastula stage, read-out: GI
Xenopus laevis [2] = species on record: Xenopus laevis; assay: Induction of cell cleavage arrest in Xenopus laevis blastular stage cells at 10 ug/mL; format: functional, Blastula stage

Question: Which inhibition of growth at 10 µg/mL (Xenopus laevis [1]) does the source give for `O=c1[nH]cc(F)c(=O)[nH]1` [FLUOROURACIL] here?
Answer: 47%

Question: For `CC(C)=CCC[C@H](C)[C@@H]1CC[C@]2(C)C3=C(CC[C@@]12C)[C@@]1(C)CC[C@H](O)C(C)(C)[C@@H]1CC3=O`, which Activity (Xenopus laevis [2]) is on record?
Answer: >50%

Question: Which Activity (Xenopus laevis [2]) does the source give for `CC(C)=CCC[C@@H](C)[C@@H]1CC[C@]2(C)C3=C(CC[C@@]12C)[C@@]1(C)CC[C@H](O)C(C)(C)[C@@H]1CC3=O` [KANSENONE] here?
Answer: >50%
